According to patent US7384636B2, “Polypeptide” (Kabushiki Kaisha Hayashibara Seibutsu Kagaku Kenkyujo, priority 2003, dated 2008):

Tests used:
Assay type in all cases: in vivo
the immunized peptide [1] = assay: Titer against the immunized peptide, B10 mice immunized intranasally (Experiment 7); conditions: intranasal, with or without CT
Description: (§1) All the mice were bled after one week.
(§2) As a negative control, DUP was prepared.

OMP [2] = assay: Titer against OMP, B10 mice immunized intranasally (Experiment 7); conditions: intranasal, with or without CT
Description: as §1, §2

[3] = tested on: the immunized polypeptide; assay: Titer against the immunized peptide, BALB/c mice immunized intraperitoneally (Experiment 5); conditions: intraperitoneal
Text: as §1

OMP [4] = assay: Titer against OMP, BALB/c mice immunized intraperitoneally (Experiment 5); conditions: intraperitoneal
Text: as §1

the immunized peptide [5] = assay: Titer against the immunized peptide, BALB/c mice immunized intranasally (Experiment 8); conditions: intranasal
Description: as §1, §2

OMP [6] = assay: Titer against OMP, BALB/c mice immunized intranasally (Experiment 8); conditions: intranasal
Description: as §1, §2

Substance | Titer against the immunized peptide (the immunized peptide [1]) | Titer against OMP (OMP [2]) | Titer against the immunized peptide (the immunized peptide [5]) | further results
OMP-KK-RGD-UP: SEQ ID NO:34, RGD at N-terminal side of UP (LAVYWELLAKYLLDRVQKVAKKRGDTYEAALKQYEADL; OMP-KK-RGD-UP) | 723 | 16 |  | 
UP-KK-OMP: SEQ ID NO:21, KK inserted between UP and OMP (TYEAALKQYEADLKKLAVYWELLAKYLLDRVQKVA; UP-KK-OMP) |  |  |  | Titer against the immunized peptide [3]: 29,921; Titer against OMP (OMP [4]): 1,211
OMP-KK-UP-RGD: SEQ ID NO:35, RGD at C-terminal side of UP (LAVYWELLAKYLLDRVQKVAKKTYEAALKQYEADLRGD; RGD-KK-UP-RGD) | 9,483 | 16 |  | 
OMP-KK-UP: SEQ ID NO:20, KK inserted between OMP and UP (LAVYWELLAKYLLDRVQKVAKKTYEAALKQYEADL; OMP-KK-UP) | 128 | 32 |  | Titer against the immunized peptide [3]: 782,685; Titer against OMP (OMP [4]): 1,731
OMP-KK-OVAp: SEQ ID NO:40, control, OMP linked by KK to OVA peptide fragment (LAVYWELLAKYLLDRVQKVAKKISQAVHAAHAEINE; OMP-KK-OVAp) |  |  | 1,589 | Titer against OMP (OMP [6]): 108
T1-KK-UP: SEQ ID NO:41, control, T1 peptide of HIV IIIB gp120 linked by KK to UP (KQIINMWQAVGKAMYAKKTYEAALKQYEADL; T1-KK-UP) |  |  | 160 | 
RGD-OMP-KK-UP: SEQ ID NO:32, RGD at N-terminal side of OMP in OMP-KK-UP (RGDLAVYWELLAKYLLDRVQKVAKKTYEAALKQYEADL; RGD-OMP-KK-UP) | 11,514 | 32 |  | 
OMP-RGD-KK-UP: SEQ ID NO:33, RGD at C-terminal side of OMP (LAVYWELLAKYLLDRVQKVARGDKKTYEAALKQYEADL; OMP-RGD-KK-UP) | 24,370 | 16 |  | 
T1-RGD-KK-UP: SEQ ID NO:39, T1 T cell epitope, RGD, KK linker, UP (KQIINMWQAVGKAMYARGDKKTYEAALKQYEADL; T1-RGD-KK-UP) |  |  | 1,707 | 
